The EC50 is the midpoint of the concentration-response curve. A word on the CC50: it is the concentration giving 50% cytotoxicity.

Where two headings read alike, the source gives them in different places. Where only a bound is given, the exact number is not on record here.

Results on 21 molecules are retold here after patent US20230107941A1, “HEPATITIS B CAPSID ASSEMBLY MODULATORS” (Venatorx Pharmaceuticals, Inc., priority 2019, published 2023).

The subject of series [1] is HBV. Put plainly: In vitro antiviral assay: anti-HBV replication in HepAD38 cells (extracellular HBV DNA by QPCR). In kind it is cell-based, hepatitis B virus (genotype D, serotype ayw). To be noted: 7 days incubation, extracellular HBV DNA by QPCR, read-out: Anti-HBV EC50. A digest of the protocol: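 HepG2-derived HepAD38 cells (HBV genotype D, ayw, tet-repressible CMV) induced by tetracycline withdrawal, treated 7 days at 37 °C with compound (1 μM to 10 pM, 10-fold steps). Supernatant HBV DNA quantified by QPCR against standard curve, percent of DMSO control; EC50 by 4-parameter fit; entecavir positive control.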

For the next series, the system named is HepG2 cells. As to the kind of experiment: In vitro cytotoxicity assay (MTT cell viability) in HepG2 cells. In kind it is cell-based, human. An outline of the steps: (§1)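 CC50 was derived by 4-parameter fit of viability relative to vehicle controls, measured as MTT formazan absorbance at 492 nm after 3–4 h of reagent and DMSO solubilization. Before that, HepG2 cells seeded overnight at 20,000/well were incubated 7 days at 37°C with compound from 30 μM down to 1.0 nM in half-log steps.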

Assay in series [2]: as above
To be noted: human. In kind it is cell-based, human. An outline of the steps: as §1

Series [3] concerns HBV. The conditions noted are these: Phase 1b clinical trial, 600 mg bid dosing for 29 days; cited from earlier work.
The mark [4] stands for this setting: Hepatitis B virus, HePAD38, 168 h.

For the molecule `Cc1cc(NC(=O)c2c(C)c(C(=O)C(=O)NC3CC(S(C)(=O)=O)C3)n(C)c2C)ccc1F` (centres unmarked) [Example 32, N-(4-fluoro-3-methylphenyl)-1,2,4-trimethyl-5-(2-(((1r,3r)-3-(methylsulfonyl)cyclobutyl)amino)-2-oxoacetyl)-1H-pyrrole-3-carboxamide], the EC50 in the series on HBV [1] was 0.05 to 0.499 µM. For the same molecule, the 50% cytotoxic concentration (CC50) in the series with HepG2 cells (human, 7 days) is > 30 µM. With `Cc1cc(NC(=O)c2c(C)c(C(=O)C(=O)NC3(C)CC(OP(=O)(O)O)C3)n(C)c2C)ccc1F` (centres unmarked) [Example 64, sodium (1s,3s)-3-(2-(4-((4-fluoro-3-methylphenyl)carbamoyl)-1,3,5-trimethyl-1H-pyrrol-2-yl)-2-oxoacetamido)-3-methylcyclobutyl phosphate], the 50% effective concentration (EC50) with HBV [1] (setting [4]) is > 1 µM. For the same molecule, in the series with HepG2 cells (HepG2 cells, 7 days incubation, MTT, read-out: HepG2 CC50), the CC50 was > 30 µM. With `Cc1cc(NC(=O)c2c(C)c(C(=O)C(=O)N[C@@H]3C[C@@H](C(=O)O)N(C)C3)n(C)c2C)ccc1F` [Example 171, (2S,4R)-4-(2-(4-((4-fluoro-3-methylphenyl)carbamoyl)-1,3,5-trimethyl-1H-pyrrol-2-yl)-2-oxoacetamido)-1-methylpyrrolidine-2-carboxylic acid], the EC50 in the series with HBV [1] (setting [4]) is > 1 µM. Also, the CC50 at 7 days in series [2] was > 30 µM.

As to `Cc1cc(NC(=O)c2c(C)c(C(=O)C(=O)NC3CCCN(CC(=O)O)C3)n(C)c2C)ccc1F` (centres unmarked) [Example 172, 2-(3-(2-(4-((4-fluoro-3-methylphenyl)carbamoyl)-1,3,5-trimethyl-1H-pyrrol-2-yl)-2-oxoacetamido)piperidin-1-yl)acetic acid], the concentration for a half-maximal effect (EC50) in the series on HBV [1] (setting [4]) is > 1 µM. Moreover, the CC50 at 7 days in series [2] is > 30 µM. Take `Cc1cc(NC(=O)c2c(C)c(C(=O)C(=O)N[C@H]3CN[C@H](C(=O)O)C3)n(C)c2C)ccc1F` [Example 173, (2S,4R)-4-(2-(4-((4-fluoro-3-methylphenyl)carbamoyl)-1,3,5-trimethyl-1H-pyrrol-2-yl)-2-oxoacetamido)pyrrolidine-2-carboxylic acid]: the EC50 with HBV [1] (setting [4]) was 0.5 to 1 µM. Moreover, the CC50 at 7 days in series [2] was > 30 µM. For `Cc1cc(NC(=O)c2c(C)c(C(=O)C(=O)N[C@]3(C)C[C@H](O)C3)n(C)c2-c2nccs2)ccc1F` [Example 174, N-(4-fluoro-3-methylphenyl)-5-(2-(((1s,3s)-3-hydroxy-1-methylcyclobutyl)amino)-2-oxoacetyl)-1,4-dimethyl-2-(thiazol-2-yl)-1H-pyrrole-3-carboxamide], in that order: 0.5 to 1 µM and > 30 µM. Take `Cc1cc(NC(=O)c2c(C)c(C(=O)C(=O)N[C@H]3CC[C@@H](S(C)(=O)=O)CC3)n(C)c2-c2nccs2)ccc1F` [Example 175, N-(4-fluoro-3-methylphenyl)-1,4-dimethyl-5-(2-(((1s,4s)-4-(methylsulfonyl)cyclohexyl)amino)-2-oxoacetyl)-2-(thiazol-2-yl)-1H-pyrrole-3-carboxamide]: the EC50 in the series with HBV [1] (setting [4]) is > 1 µM. Also, the CC50 at 7 days in series [2] was > 30 µM. For `Cc1cc(NC(=O)c2c(C)c(C(=O)C(=O)N[C@]3(C)CC[C@H](O)CC3)n(C)c2-c2nccs2)ccc1F` [Example 176, N-(4-fluoro-3-methylphenyl)-5-(2-(((1s,4s)-4-hydroxy-1-methylcyclohexyl)amino)-2-oxoacetyl)-1,4-dimethyl-2-(thiazol-2-yl)-1H-pyrrole-3-carboxamide], in that order: 0.05 to 0.499 µM and > 30 µM.

In the case of `Cc1cc(NC(=O)c2c(C)c(C(=O)C(=O)N[C@H]3CC[C@@H](O)CC3)n(C)c2-c2nccs2)ccc1F` [Example 177, N-(4-fluoro-3-methylphenyl)-5-(2-(((1s,4s)-4-hydroxycyclohexyl)amino)-2-oxoacetyl)-1,4-dimethyl-2-(thiazol-2-yl)-1H-pyrrole-3-carboxamide], in the series on HBV [1] (setting [4]), the EC50 was > 1 µM. In series [2], the half-maximal cytotoxic concentration (CC50) at 7 days is > 30 µM. As for `Cc1cc(NC(=O)c2c(C)c(C(=O)C(=O)NCC(C)(C)O)n(C)c2-c2nccs2)ccc1F` [Example 178, N-(4-fluoro-3-methylphenyl)-5-(2-((2-hydroxy-2-methylpropyl)amino)-2-oxoacetyl)-1,4-dimethyl-2-(thiazol-2-yl)-1H-pyrrole-3-carboxamide], the EC50 in the series with HBV [1] (setting [4]) was > 1 µM. Further, the CC50 at 7 days in series [2] was > 30 µM. The corresponding values for `Cc1cc(NC(=O)c2c(C)c(C(=O)C(=O)N[C@@H]3CN[C@H](C(=O)O)C3)n(C)c2C)ccc1F` [Example 179, (2S,4S)-4-(2-(4-((4-fluoro-3-methylphenyl)carbamoyl)-1,3,5-trimethyl-1H-pyrrol-2-yl)-2-oxoacetamido)pyrrolidine-2-carboxylic acid] are > 1 µM and > 30 µM. For `Cc1cc(NC(=O)c2c(C)c(C(=O)C(=O)N[C@@H]3CCN[C@H](C(=O)O)C3)n(C)c2C)ccc1F` [Example 180, (2S,4R)-4-(2-(4-((4-fluoro-3-methylphenyl)carbamoyl)-1,3,5-trimethyl-1H-pyrrol-2-yl)-2-oxoacetamido)piperidine-2-carboxylic acid], in that order: > 1 µM and > 30 µM. In the case of `Cc1cc(NC(=O)c2c(C)c(C(=O)C(=O)N[C@]3(C)C[C@H](O)C3)n(C)c2-c2ccsc2)ccc1F` [Example 181, N-(4-fluoro-3-methylphenyl)-5-(2-(((1s,3s)-3-hydroxy-1-methylcyclobutyl)amino)-2-oxoacetyl)-1,4-dimethyl-2-(thiophen-3-yl)-1H-pyrrole-3-carboxamide], the 50% effective concentration (EC50) in the series with HBV [1] (setting [4]) lay in the range of 0.5 to 1 µM. The CC50 at 7 days in series [2] is 5 to 30 µM. For `Cc1cc(NC(=O)c2c(C)c(C(=O)C(=O)N[C@H]3CC[C@@H](S(C)(=O)=O)CC3)n(C)c2-c2ccsc2)ccc1F` [Example 182, N-(4-fluoro-3-methylphenyl)-1,4-dimethyl-5-(2-(((1s,4s)-4-(methylsulfonyl)cyclohexyl)amino)-2-oxoacetyl)-2-(thiophen-3-yl)-1H-pyrrole-3-carboxamide], in that order: > 1 µM and > 30 µM. For `Cc1cc(NC(=O)c2c(C)c(C(=O)C(=O)N[C@]3(C)CC[C@H](O)CC3)n(C)c2-c2ccsc2)ccc1F` [Example 183, N-(4-fluoro-3-methylphenyl)-5-(2-(((1s,4s)-4-hydroxy-1-methylcyclohexyl)amino)-2-oxoacetyl)-1,4-dimethyl-2-(thiophen-3-yl)-1H-pyrrole-3-carboxamide], in that order: 0.05 to 0.499 µM and > 30 µM.

`Cc1cc(NC(=O)c2c(C)c(C(=O)C(=O)N[C@H]3CC[C@@H](O)CC3)n(C)c2-c2ccsc2)ccc1F` [Example 184, N-(4-fluoro-3-methylphenyl)-5-(2-(((1s,4s)-4-hydroxycyclohexyl)amino)-2-oxoacetyl)-1,4-dimethyl-2-(thiophen-3-yl)-1H-pyrrole-3-carboxamide]: the EC50 in the series on HBV [1] (setting [4]) was > 1 µM. The cytotoxic concentration (CC50) at 7 days in series [2] lay within 5 to 30 µM. As for `Cc1cc(NC(=O)c2c(C)c(C(=O)C(=O)NCC(C)(C)O)n(C)c2-c2ccsc2)ccc1F` [Example 185, N-(4-fluoro-3-methylphenyl)-5-(2-((2-hydroxy-2-methylpropyl)amino)-2-oxoacetyl)-1,4-dimethyl-2-(thiophen-3-yl)-1H-pyrrole-3-carboxamide], the 50% effective concentration (EC50) with HBV [1] (setting [4]) lay within 0.5 to 1 µM. Further, in series [2], the CC50 at 7 days lay within 5 to 30 µM.

Take `CCN(C(=O)C(=O)c1c(C)c(C(=O)Nc2ccc(F)c(C)c2)c(C)n1C)C(C)C` [Example 186, 5-(2-(ethyl(isopropyl)amino)-2-oxoacetyl)-N-(4-fluoro-3-methylphenyl)-1,2,4-trimethyl-1H-pyrrole-3-carboxamide]: the concentration for a half-maximal effect (EC50) in the series on HBV [1] (setting [4]) lay in the range of 0.5 to 1 µM. Also, the CC50 at 7 days in series [2] is > 30 µM.

Take `Cc1cc(NC(=O)c2c(C)c(C(=O)C(=O)N3CCOCC3)n(C)c2C)ccc1F` [Example 187, N-(4-fluoro-3-methylphenyl)-1,2,4-trimethyl-5-(2-morpholino-2-oxoacetyl)-1H-pyrrole-3-carboxamide]: the EC50 with HBV [1] (setting [4]) is 0.5 to 1 µM. Also, the half-maximal cytotoxic concentration (CC50) at 7 days in series [2] is > 30 µM. On to `CCC(CC)NC(=O)C(=O)c1c(C)c(C(=O)Nc2ccc(F)c(C)c2)c(C)n1C` [Example 188, N-(4-fluoro-3-methylphenyl)-1,2,4-trimethyl-5-(2-oxo-2-(pentan-3-ylamino)acetyl)-1H-pyrrole-3-carboxamide], for which the EC50 in the series on HBV [1] (setting [4]) is < 0.05 µM. Moreover, the CC50 at 7 days in series [2] fell in the range of 5 to 30 µM.

Regarding `O=C(Nc1cc(F)c(F)c(F)c1)c1ccc(F)c(S(=O)(=O)N2CCC(O)CC2)c1` [NVR 3-778], the “reduction in HBV DNA” value in the series on HBV [3] is on record as −1.7 log 10.
